Test results reported in ChEMBL document CHEMBL1201862, “PubChem BioAssay data set” (2004).
Activity calls are given as the source filed them.

What was measured:
Estrogen receptor = target: T1, Estrogen receptor (Homo sapiens, UniProt P03372);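 further: potency for inhibiting coactivator peptide recruitment to the receptor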
T1 sequence (P03372 whole entry): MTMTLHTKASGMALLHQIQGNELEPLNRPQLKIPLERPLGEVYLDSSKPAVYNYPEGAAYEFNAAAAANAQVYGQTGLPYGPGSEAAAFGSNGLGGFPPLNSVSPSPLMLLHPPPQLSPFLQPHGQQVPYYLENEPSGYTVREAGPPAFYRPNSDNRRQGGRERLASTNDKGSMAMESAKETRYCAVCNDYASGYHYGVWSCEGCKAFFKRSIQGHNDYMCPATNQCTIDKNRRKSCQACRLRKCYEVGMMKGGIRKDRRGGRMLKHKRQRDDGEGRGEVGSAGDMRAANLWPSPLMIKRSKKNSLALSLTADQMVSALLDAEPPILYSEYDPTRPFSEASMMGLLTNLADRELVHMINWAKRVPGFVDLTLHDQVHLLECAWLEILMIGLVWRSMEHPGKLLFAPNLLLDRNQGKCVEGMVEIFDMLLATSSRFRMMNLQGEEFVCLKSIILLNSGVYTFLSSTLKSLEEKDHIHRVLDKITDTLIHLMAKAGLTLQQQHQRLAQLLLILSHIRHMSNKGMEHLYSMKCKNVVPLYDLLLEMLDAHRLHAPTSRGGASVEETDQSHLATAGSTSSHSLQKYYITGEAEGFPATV

Estrogen receptor beta = Estrogen receptor beta (Homo sapiens, UniProt Q92731);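 further: recombinant ER-beta bound to coactivator SRC1 peptide in presence of estradiol agonist; inhibitors block coactivator peptide binding and lower the FRET signal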
Estrogen receptor beta, sequence (Q92731 whole entry): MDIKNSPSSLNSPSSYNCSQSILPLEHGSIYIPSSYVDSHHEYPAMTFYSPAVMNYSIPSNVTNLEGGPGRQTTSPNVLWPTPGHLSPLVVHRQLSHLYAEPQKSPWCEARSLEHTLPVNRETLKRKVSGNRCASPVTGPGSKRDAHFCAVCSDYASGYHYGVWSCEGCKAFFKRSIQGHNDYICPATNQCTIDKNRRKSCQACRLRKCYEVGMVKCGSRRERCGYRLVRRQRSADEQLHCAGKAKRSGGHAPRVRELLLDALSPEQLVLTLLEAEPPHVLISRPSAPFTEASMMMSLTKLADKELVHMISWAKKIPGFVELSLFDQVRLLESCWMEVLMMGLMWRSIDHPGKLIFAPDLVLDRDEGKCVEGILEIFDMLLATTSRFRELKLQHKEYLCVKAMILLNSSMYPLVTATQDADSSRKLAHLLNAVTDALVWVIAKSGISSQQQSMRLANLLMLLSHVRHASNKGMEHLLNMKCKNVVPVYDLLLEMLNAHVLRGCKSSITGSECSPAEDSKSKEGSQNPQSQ

[1] = P. falciparum Dd2 growth inhibitors, dose response, SYBR Green, cherry-picked samples (AID 1159567); assay type: functional, cell-based
[2] = toxicity to human hepatoma HepG2 cells – cell-based, cherry-picked samples, cytotoxicity control, dose response (AID 1159577); assay type: functional
[3] = target: E3 ubiquitin-protein ligase Mdm2 (Homo sapiens, UniProt Q00987); assay: MDM2-luc reporter signal enhancers, multi-concentration potency testing, MDM2 ubiquitin-protein ligase inhibitor program, whole-cell format, luminescence detection, 384-well microplate (AID 1394); assay type: functional;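 further: MDM2 E3 inhibitors raise luminescence so EC50 is for signal enhancement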
E3 ubiquitin-protein ligase Mdm2, sequence (Q00987 whole entry): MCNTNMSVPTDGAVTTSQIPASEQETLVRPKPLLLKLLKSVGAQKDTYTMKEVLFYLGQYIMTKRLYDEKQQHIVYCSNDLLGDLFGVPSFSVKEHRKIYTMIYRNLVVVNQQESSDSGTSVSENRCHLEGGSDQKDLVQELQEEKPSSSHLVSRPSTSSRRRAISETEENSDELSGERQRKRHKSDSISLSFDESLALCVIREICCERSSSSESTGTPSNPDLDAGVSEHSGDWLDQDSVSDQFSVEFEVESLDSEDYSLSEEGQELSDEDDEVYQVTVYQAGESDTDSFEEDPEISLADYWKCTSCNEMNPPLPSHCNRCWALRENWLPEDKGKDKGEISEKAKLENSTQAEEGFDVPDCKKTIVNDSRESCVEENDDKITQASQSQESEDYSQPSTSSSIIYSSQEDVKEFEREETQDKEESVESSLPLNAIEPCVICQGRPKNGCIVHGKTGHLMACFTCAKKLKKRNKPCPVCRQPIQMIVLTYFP

H9c2 = assay: cells; assay type: functional, cell-based; details: Rattus norvegicus, H9c2, Myocardium;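 further: confirmatory concentration-response retest of ultra-high-throughput screening hits for modulation of myocardial damage; cell death induced by hydrogen peroxide oxidative stress; compound pretreatment for 60 min then peroxide exposure for 2 h; potency is for protecting the cells against peroxide damage rather than for killing them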
[4] = target: 26S proteasome non-ATPase regulatory subunit 14 (Homo sapiens, UniProt O00487); assay: inhibition of proteasome subunit RPN11 – biochemical, fluorescence polarization, uHTS hits, confirmation (AID 602368); assay type: functional
26S proteasome non-ATPase regulatory subunit 14, sequence (O00487 whole entry): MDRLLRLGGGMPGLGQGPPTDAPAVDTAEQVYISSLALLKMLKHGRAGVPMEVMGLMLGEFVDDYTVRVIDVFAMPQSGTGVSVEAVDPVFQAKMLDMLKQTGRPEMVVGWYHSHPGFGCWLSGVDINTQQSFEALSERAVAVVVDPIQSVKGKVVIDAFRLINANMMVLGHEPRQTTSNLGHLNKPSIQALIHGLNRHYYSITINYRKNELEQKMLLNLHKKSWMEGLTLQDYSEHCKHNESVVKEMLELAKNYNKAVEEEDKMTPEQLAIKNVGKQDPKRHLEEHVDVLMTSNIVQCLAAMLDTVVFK

[5] = target: 72 kDa type IV collagenase (Homo sapiens, UniProt P08253); assay: Dose Response validation of uHTS RPN11 inhibitor hits using a MMP-2 Fluorescence assay.; assay type: functional
72 kDa type IV collagenase, sequence (P08253 whole entry): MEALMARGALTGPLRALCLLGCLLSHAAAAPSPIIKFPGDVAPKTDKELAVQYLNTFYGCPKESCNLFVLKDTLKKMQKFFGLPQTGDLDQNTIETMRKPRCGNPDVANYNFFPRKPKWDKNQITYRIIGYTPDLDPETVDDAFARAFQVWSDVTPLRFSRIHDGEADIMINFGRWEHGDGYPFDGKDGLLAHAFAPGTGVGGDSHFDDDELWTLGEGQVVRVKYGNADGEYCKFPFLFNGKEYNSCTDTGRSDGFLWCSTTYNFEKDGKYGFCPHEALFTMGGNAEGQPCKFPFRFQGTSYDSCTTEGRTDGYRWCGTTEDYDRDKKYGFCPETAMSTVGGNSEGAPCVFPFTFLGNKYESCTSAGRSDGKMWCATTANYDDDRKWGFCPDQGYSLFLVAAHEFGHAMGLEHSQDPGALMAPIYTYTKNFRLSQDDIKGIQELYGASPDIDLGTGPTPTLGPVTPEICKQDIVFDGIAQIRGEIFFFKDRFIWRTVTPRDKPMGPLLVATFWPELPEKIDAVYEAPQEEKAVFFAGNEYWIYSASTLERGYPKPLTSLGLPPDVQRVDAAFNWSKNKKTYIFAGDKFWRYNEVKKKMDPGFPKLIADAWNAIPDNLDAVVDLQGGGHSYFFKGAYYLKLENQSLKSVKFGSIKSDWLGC

Prothrombin = Prothrombin (Bos taurus, UniProt P00735); assay: thrombin protease inhibitors – biochemical, fluorescence polarization, uHTS hits, dose response (AID 602369); assay type: functional
[6] = target: G-protein coupled receptor 35 (Homo sapiens, UniProt Q9HC97); assay: inhibition of zaprinast-stimulated GPR35 beta-arrestin translocation – imaging, U2OS, beta-arrestin-GFP, zaprinast agonist, primary screen (AID 2058); assay type: functional;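 further: antagonist potency meaning inhibition of agonist-induced arrestin redistribution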
G-protein coupled receptor 35, sequence (Q9HC97 whole entry): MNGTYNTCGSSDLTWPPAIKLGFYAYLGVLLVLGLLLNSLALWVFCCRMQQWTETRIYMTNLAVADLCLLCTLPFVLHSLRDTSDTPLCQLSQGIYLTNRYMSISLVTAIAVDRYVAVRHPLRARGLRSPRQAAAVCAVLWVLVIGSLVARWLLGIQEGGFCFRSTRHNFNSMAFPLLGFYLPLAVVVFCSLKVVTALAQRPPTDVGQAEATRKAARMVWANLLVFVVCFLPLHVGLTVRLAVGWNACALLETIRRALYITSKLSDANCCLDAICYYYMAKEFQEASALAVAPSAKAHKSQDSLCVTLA

[7] = target: G-protein coupled receptor 55 (Homo sapiens, UniProt Q9Y2T6); assay: inhibition of LPI-stimulated GPR55 beta-arrestin translocation – imaging, U2OS, beta-arrestin-GFP, LPI agonist, primary screen (AID 2013); assay type: functional;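 further: antagonist potency measured as reduced agonist-driven arrestin aggregation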
G-protein coupled receptor 55, sequence (Q9Y2T6 whole entry): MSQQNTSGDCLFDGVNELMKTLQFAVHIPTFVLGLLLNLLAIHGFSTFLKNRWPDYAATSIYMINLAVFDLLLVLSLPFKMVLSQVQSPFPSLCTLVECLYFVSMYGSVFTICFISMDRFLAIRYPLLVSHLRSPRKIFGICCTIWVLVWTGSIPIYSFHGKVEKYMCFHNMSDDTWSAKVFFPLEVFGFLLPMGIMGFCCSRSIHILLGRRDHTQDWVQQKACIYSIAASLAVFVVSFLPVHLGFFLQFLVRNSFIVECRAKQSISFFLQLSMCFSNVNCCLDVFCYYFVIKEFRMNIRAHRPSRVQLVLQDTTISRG

[8] = target: Bifunctional protein GlmU (Mycobacterium tuberculosis, UniProt P9WMN3); assay: Inhibitors of Mycobacterial Glucosamine-1-phosphate acetyl transferase (GlmU). Secondary screen.; parameters: species or system Mycobacterium tuberculosis H37Rv
Bifunctional protein GlmU, sequence (P9WMN3 whole entry): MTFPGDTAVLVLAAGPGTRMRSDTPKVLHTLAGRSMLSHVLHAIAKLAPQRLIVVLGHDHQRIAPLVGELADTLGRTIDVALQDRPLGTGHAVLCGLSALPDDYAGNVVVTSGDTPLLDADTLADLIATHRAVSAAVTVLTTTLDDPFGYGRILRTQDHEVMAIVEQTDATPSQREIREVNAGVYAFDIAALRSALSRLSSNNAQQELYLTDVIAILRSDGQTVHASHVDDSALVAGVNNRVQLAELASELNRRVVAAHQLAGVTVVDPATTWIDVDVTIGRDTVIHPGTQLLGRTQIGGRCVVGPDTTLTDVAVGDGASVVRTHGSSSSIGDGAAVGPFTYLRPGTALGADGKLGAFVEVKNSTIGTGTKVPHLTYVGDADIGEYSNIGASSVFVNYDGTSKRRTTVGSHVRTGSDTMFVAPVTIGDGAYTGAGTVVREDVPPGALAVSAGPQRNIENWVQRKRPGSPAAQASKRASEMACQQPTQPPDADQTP

[9] = target: T2, Heat shock factor protein 1 (Mus musculus, UniProt P38532); assay: decrease of HSF1-responsive luciferase luminescence – cell-based, NIH3T3, dose retest, confirmation (AID 2382); assay type: functional;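 further: NIH3T3 fibroblasts with HSF1-driven luciferase reporter stressed by proteasome inhibitor MG132; luminescence from HSF1-driven luciferase expression after 8 hours of MG132 stress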
T2 sequence (P38532 whole entry): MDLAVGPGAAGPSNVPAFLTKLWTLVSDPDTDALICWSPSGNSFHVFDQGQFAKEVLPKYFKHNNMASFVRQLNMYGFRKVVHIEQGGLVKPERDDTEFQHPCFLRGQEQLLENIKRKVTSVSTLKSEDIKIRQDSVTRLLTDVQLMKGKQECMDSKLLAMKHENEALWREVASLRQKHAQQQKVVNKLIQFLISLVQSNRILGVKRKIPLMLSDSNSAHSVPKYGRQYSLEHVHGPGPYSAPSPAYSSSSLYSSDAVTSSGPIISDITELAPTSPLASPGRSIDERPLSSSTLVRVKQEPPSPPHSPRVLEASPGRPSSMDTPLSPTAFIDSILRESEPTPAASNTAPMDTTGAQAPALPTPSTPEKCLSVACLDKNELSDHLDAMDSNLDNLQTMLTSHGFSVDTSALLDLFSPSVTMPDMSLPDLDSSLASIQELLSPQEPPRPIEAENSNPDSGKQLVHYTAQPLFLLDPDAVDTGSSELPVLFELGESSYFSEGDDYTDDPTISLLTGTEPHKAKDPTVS

[10] = THP-1 cell cytotoxicity, dose response, cytotoxicity control for non-replicating M. tuberculosis project (AID 489025); assay type: functional
[11] = Vero E6 cell cytotoxicity, dose response, cytotoxicity control for non-replicating M. tuberculosis project, secondary assay (AID 492998); assay type: functional, VeroE6; details: Vero C1008
Protein skinhead-1 = target: T3, Protein skinhead-1 (Caenorhabditis elegans, UniProt P34707); assay type: functional
T3 sequence (P34707 whole entry): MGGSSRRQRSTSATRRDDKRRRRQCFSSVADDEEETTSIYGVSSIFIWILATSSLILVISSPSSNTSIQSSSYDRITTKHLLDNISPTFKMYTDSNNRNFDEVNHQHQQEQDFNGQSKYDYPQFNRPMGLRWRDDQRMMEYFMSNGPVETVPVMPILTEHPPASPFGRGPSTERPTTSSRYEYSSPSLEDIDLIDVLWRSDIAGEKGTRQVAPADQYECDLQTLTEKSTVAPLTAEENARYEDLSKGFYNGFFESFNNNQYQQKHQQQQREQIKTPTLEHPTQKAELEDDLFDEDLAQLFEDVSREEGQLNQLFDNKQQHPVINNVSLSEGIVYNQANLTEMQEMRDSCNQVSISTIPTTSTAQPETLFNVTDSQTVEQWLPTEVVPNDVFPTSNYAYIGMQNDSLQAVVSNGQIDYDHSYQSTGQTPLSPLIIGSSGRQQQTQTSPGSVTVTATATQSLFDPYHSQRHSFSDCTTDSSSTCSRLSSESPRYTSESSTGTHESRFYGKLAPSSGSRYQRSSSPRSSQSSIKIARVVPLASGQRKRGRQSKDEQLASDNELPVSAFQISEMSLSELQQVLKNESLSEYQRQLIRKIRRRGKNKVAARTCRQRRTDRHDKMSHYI

[12] = viability loss in Vero cells – cytotoxicity control for Vif-APOBEC3G degradation inhibitor project, dose response (AID 1117358); assay type: functional; details: Vero
[13] = target: T4, Oxysterols receptor LXR-beta (Homo sapiens, UniProt P55055); assay type: functional, cell-based;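 further: Cell-based luminescence dose-response assay of agonist activity at LXR, run as a confirmatory counterscreen to a daf-12 agonist screen; HEK293 cells with Gal4-LXR fusion and GAL4-driven luciferase reporter; agonist potency from rising luciferase signal of a Gal4-LXR reporter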
T4 sequence (P55055 whole entry): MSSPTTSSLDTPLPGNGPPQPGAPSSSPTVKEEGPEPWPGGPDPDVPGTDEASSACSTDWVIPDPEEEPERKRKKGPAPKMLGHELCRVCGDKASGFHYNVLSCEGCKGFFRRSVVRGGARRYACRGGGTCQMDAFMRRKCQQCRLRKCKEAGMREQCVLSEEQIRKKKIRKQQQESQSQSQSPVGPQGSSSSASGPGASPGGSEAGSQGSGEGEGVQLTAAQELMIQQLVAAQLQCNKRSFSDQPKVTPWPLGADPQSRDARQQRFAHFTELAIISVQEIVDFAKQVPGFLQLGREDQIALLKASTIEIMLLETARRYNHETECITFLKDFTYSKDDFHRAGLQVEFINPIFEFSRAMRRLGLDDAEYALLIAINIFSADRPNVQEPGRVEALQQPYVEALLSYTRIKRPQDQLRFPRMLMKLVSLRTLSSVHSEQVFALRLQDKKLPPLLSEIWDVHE

Leucine aminopeptidase = target: T5, Leucine aminopeptidase (Plasmodium falciparum 3D7, UniProt Q8IL11); assay: P. falciparum M17LAP inhibitors, primary screen, biochemical, fluorogenic H-Leu-NHMec substrate, 1536-well (AID 1619); assay type: functional
T5 sequence (Q8IL11 whole entry): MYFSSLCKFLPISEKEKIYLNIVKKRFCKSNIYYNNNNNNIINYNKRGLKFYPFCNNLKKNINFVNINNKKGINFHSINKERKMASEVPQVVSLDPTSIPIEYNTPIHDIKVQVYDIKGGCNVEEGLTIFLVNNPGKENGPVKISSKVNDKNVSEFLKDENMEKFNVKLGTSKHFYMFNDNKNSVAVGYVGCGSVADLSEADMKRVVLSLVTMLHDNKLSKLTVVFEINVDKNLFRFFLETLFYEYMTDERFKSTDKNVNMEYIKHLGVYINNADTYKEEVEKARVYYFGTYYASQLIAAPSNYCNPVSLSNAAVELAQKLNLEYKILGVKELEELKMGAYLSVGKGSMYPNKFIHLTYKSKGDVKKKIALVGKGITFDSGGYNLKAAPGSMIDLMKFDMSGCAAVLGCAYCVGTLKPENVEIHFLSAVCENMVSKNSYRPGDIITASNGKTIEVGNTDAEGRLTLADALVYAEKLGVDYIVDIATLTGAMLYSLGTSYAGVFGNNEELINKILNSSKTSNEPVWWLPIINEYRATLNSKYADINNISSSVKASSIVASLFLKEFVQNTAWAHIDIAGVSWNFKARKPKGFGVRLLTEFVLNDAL

[14] = blockers of HIV-1 envelope-mediated cell-cell fusion – cherry-pick, dose response (AID 652057); assay type: functional, cell-based
[15] = viability loss in CEM21 cells – cell-based, CellTiter-Glo luminescence, cherry-picked, cytotoxicity control for viral fusion inhibitor project, dose response (AID 652042); assay type: functional;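 further: potency for signal decrease meaning cytotoxicity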
[16] = blockers of HIV-1 ZM109 envelope-driven cell-cell fusion – HeLa effector, CEM target cells, luciferase, cherry-pick, dose response (AID 652058); assay type: functional, cell-based;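 further: luciferase signal from HIV-1 Env mediated cell-cell fusion of effector and target cells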
[17] = off-target signal loss in HeLa-CEM21 co-culture – HeLa F-luc CTL cells, cherry-picked, counter-screen for HIV-1 Env fusion inhibitor project, dose response (AID 652040); assay type: functional, cell-based;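 further: potency for signal decrease marking cytotoxic or nonspecific inhibition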
[18] = HIV-1 AD8 envelope cell-cell fusion blockers – cherry-pick, dose response (AID 652062); assay type: functional, cell-based;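 further: luciferase signal from cell-cell fusion driven by HIV-1 clade B AD8 Env; potency is for inhibitors of fusion seen as a drop in luminescence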
[19] = growth inhibition of yeast DHODH-expressing 3D7 parasites – SYBR Green, dry powder samples, dose response (AID 1159570); assay type: functional, cell-based;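 further: parasite growth measured after 72 hours of compound exposure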
[20] = toxicity to human HepG2 hepatoma cells – cell-based, plate reader, dry powder samples, cytotoxicity control, dose response (AID 1159569); assay type: functional;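 further: inhibitor potency with signal falling toward the positive control level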
[21] = Dd2 malaria parasite growth inhibition potency – SYBR Green, dry powder samples, dose response (AID 1159566); assay type: functional, cell-based;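 further: potency for growth inhibition with lower SYBR green DNA signal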
[22] = growth inhibition of PfATP4-mutant resistant parasites – NITD609-resistant line, SYBR Green, dry powder, dose response (AID 1159571); assay type: functional, cell-based;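 further: parasites synchronized at ring stage by sorbitol before testing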
HEK293 [23] = assay: cells; details: Homo sapiens
HEK293 [24] = assay: cells; details: Homo sapiens; remark: listed apart in the source
Genome polyprotein = Genome polyprotein (dengue virus type 2, UniProt P29990); assay: flavivirus cap methylation enzyme inhibition – biochemical, confirmation dose response, primary screen (AID 588689); assay type: functional
Genome polyprotein, sequence (P29990 2492-3391 limits assumed): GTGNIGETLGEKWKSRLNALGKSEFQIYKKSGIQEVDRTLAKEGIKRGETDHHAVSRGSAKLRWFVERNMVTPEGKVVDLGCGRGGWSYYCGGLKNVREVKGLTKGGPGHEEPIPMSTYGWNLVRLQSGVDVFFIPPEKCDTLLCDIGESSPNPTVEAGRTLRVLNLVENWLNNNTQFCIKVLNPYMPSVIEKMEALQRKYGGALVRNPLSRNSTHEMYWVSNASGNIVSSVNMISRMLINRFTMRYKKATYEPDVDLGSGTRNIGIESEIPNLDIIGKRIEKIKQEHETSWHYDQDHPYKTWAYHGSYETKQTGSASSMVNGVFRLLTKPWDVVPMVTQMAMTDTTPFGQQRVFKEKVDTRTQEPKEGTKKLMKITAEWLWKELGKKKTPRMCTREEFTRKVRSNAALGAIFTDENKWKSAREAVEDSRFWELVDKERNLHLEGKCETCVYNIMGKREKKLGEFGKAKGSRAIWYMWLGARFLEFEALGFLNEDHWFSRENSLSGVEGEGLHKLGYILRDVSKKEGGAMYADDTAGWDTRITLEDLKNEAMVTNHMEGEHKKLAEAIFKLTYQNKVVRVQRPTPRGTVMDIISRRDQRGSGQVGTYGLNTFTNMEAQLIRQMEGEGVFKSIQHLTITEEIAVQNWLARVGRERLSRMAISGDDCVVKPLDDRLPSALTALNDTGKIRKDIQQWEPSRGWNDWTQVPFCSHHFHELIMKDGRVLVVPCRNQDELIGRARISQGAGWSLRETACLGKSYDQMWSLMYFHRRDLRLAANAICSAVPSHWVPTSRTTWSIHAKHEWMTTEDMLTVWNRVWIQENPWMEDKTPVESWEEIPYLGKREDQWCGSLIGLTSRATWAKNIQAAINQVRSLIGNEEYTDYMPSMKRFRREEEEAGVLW

[25] = target: Glutathione-S-transferase (Schistosoma japonicum, UniProt Q26513); assay: GST-antibody interaction or FRET quenching – biochemical, TR-FRET, artefact control for Vif-APOBEC3G degradation inhibitor project, dose response (AID 1117362); assay type: functional
Glutathione-S-transferase, sequence (Q26513 whole entry): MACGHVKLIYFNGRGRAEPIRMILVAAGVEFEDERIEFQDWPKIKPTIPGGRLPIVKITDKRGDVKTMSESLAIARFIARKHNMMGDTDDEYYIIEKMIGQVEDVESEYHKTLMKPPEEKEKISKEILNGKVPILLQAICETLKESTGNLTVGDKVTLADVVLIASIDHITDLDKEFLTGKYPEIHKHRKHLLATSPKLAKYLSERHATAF

Cc1ccc(S(=O)(=O)Cc2ccc(C(=O)N3CCC4(CC3)OCCO4)o2)cc1
IC50 (Estrogen receptor): 43 µM (not active) | IC50 (Estrogen receptor beta): 12.8 µM (active)

CCC(=O)N1CC(=O)N2[C@@H](CO)[C@H](c3ccc(C#CCc4ccccc4)cc3)[C@@H]2C1
AC50 [1]: 11.4 µM (active) | AC50 [2]: 25.2 µM (active)

COc1cccc(/C=N/NC(=O)c2[nH]c(C)c(C(=O)N/N=C/c3cccc(OC)c3)c2C)c1
EC50 [3]: 6.15 µM (not active) | IC50 (H9c2): 10.6 µM (active) | IC50 [4]: 1.41 µM (active) | IC50 [5]: > 100 µM (inactive) | IC50 (Prothrombin): > 100 µM (inactive)

O=C1C=CC(=O)N1CCCCCCN1C(=O)C=CC1=O
IC50 [6]: 6.23 µM (active) | IC50 [7]: 9.79 µM (active) | IC50 [8]: 118 µM (active)

CCN1C(C(=O)c2ccccc2)=C(O)c2ccccc2S1(=O)=O
EC50 [9]: > 195 µM (not active) | CC50 [10]: 26.2 µM (active) | CC50 [11]: 19.2 µM (active) | IC50 (Protein skinhead-1): > 100 µM (inactive) | CC50 [12]: 24.3 µM (active)

c1ccc(-c2noc(-c3cccc4ccccc34)n2)nc1
EC50 [13]: > 67.5 µM (inactive) | EC50 (cells): > 67.5 µM (inactive)

O=C(O)c1cccc(-c2ccc(/C=N/NC(=O)c3cccnc3)o2)c1
IC50 (Leucine aminopeptidase): 37.5 µM (active) | IC50 [8]: 185 µM (active)

COc1ccc(Nc2nc(C(=O)N3CCc4ccccc4C3)cs2)cc1
EC50 [3]: 12.3 µM (not active)

Cc1ccc(S(=O)(=O)N(C)C[C@@H]2OCc3ccccc3-c3c(n(C)c4ccccc34)C(=O)N([C@H](C)CO)C[C@@H]2C)cc1
AC50 [14]: 1.87 µM (active) | AC50 [15]: 29.6 µM (active) | AC50 [16]: 2 µM (active) | AC50 [17]: 1.66 µM (active) | AC50 [18]: 2.16 µM (active) | AC50 [19]: 0.151 µM (active) | AC50 [20]: 52.3 µM (active) | AC50 [1]: 0.676 µM (active) | AC50 [21]: 0.0655 µM (active) | AC50 [22]: 0.106 µM (active) | EC50 (HEK293 [23]): > 59.6 µM (inactive) | EC50 (HEK293 [24]): > 59.6 µM (inactive)

C[C@H]1CN([C@@H](C)CO)C(=O)c2ccccc2-c2ccccc2CO[C@H]1CN(C)Cc1ccc(C(F)(F)F)cc1
AC50 [1]: 3.03 µM (active) | AC50 [2]: > 42 µM (inactive)

O=C1CC=C2C3CC4N(CCC45c4cc(O)c(O)cc4N1C25)CC3=CCBr (stereo not drawn)
IC50 (Genome polyprotein): 31.5 µM (active) | IC50 [25]: 3.05 µM (active)
